Measurements: patent US12226399B2, “Oral aqueous suspension formulation comprising carbamate compound” (SK BIOPHARMACEUTICALS CO., LTD., priority 2021, dated 2025)

Test: Visual wetting of cenobamate API on wetting agent solution
Type: physicochemical
Conditions: in the presence of poloxamer 188; time for cenobamate to fall below the surface
Procedure: Poloxamer 188 was evaluated at different concentrations for sedimentation volume, dispensability and wettability of cenobamate containing dispersion in a neat citrate or phosphate buffer at pH 3 to 7. Approximately one hundred milligrams (100 mg) of cenobamate was dispersed in 10 mL of the poloxamer liquid at the concentration of 0.10, 0.50, 1.00, and 1.50 mg/mL in phosphate buffer pH 4.2 and the dispersions were evaluated for sedimentation volume, re-dispersibility, and wettability. Additionally, separate samples containing poloxamer 188 at the concertation of 0.1 mg/ml were also prepared in citrate buffer at different levels of pH (pH 3.5, 4.2 and 5.2), and evaluated in the same manner.
The volume of the sedimentation layer is an indicator to the amount of spacing between the particles in the sediment layer. Physical observations indicated these dispersions settled rapidly but formed a loosely packed layer which was very easily re-dispersed after inversion and/or shaking (FIGS. 1 and 2).
The following intended effects that were observed are immediate wetting of most of the material after adding cenobamate to the poloxamer solution, rapid and loose initial sedimentation within first 30 minutes to 1 hour as measured by ratio of sediment volume to total volume, no caking and efficient re-dispersion, rapidly dispersing material after shaking the settled sample for 10 seconds.

With NC(=O)O[C@@H](Cn1ncnn1)c1ccccc1Cl [cenobamate, carbamic acid (R)-1-(2-chlorophenyl)-2-tetrazol-2-yl-ethyl ester] the Wetting of cenobamate was “good wetting”.
